Data as given in PMC12067093, “Discovery and optimisation of a covalent ligand for TRIM25 and its application to targeted protein ubiquitination” (Chemical Science, 2025).

Legend:
E1 (His6-UBA1) = molecular target: T1, E1 (His6-UBA1) (Mus musculus, UniProt Q02053); assay: E1~Ub loading assay; assay type: biochemical; conditions: E1 2 μM pre-treated with compound 100 μM for 30 min at RT; reducing and non-reducing conditions
T1 construct: made in house
T1 sequence (Q02053 1-1058): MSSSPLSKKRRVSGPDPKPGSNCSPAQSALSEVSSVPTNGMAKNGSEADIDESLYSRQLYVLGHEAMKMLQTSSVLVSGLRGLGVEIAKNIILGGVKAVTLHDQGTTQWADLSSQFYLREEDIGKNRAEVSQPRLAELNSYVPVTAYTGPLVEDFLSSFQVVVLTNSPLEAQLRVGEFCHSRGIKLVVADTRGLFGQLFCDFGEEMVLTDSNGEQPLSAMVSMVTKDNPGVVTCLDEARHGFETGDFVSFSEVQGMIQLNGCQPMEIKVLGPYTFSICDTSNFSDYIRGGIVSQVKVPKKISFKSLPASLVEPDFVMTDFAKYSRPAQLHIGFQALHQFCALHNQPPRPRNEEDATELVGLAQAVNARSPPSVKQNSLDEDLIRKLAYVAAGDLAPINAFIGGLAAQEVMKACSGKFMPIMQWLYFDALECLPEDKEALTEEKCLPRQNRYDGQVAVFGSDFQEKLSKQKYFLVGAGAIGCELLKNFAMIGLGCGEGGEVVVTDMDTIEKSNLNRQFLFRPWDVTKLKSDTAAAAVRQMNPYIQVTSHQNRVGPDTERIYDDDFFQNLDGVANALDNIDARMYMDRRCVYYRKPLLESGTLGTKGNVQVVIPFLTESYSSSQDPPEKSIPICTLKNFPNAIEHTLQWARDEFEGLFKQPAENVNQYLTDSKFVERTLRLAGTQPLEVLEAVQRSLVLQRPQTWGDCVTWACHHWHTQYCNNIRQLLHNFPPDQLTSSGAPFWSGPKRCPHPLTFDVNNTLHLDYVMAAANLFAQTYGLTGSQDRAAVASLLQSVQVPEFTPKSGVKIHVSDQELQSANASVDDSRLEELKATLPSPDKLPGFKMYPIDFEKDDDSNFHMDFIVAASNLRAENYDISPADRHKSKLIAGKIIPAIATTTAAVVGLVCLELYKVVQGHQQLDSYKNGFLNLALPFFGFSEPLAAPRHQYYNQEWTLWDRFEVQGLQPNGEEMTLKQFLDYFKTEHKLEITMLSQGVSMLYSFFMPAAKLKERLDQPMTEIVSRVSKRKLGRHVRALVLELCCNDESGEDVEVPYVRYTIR
Procedure: 2 Supplementary Figure 6 Further biochemical characterisation of purified
4 A) Schematic of auto-ubiquitination assay, with pre-labelled full-length TRIM25. Created in
5 BioRender. McPhie, K. (2025) https://BioRender.com/q86g447; B) Auto-ubiquitination time
7 µM) was incubated with compounds (50 µM) or DMSO (1%) for 16 h at 4 °C, before addition
8 of E1 (0.2 µM), UBCH5B (2 µM), Ub (50 µM), UbATTO (1 µM). The assay was initiated by the
9 addition of ATP, and performed for 60 min at 30 °C. Time point 0 was taken before the addition
10 of ATP. Samples were analysed by SDS-PAGE, with Coomassie staining and scanning at 700
11 nm wavelength (for ATTO emission).
12 of His10-TRIM25 (which has not been ubiquitinated) where % His10-TRIM25 (relative to time =
13 0 min) is plotted vs reaction time. Data are presented as n = 1; D) E1~Ub loading assay with
E1 (2 µM) was incubated with
15 compounds (100 µM) or DMSO (1%) for 30 min at RT, before addition of UBCH5B (2 µM) and
16 Ub (10 µM). The assay was initiated by the addition of ATP (1 mM), and performed for 5 min
17 at 30 °C. After 5 min, samples were treated with either loading dye, or loading dye with DTT,
18 and analysed by SDS-PAGE, with Coomassie staining; E) Cellular target identification for 11
19 (50 µM, left, and 10 µM, right, 4 h incubation at 37 °C in live THP-1 cells) using an […]

[1] = molecular target: T2, TRIM25 (peptide FTYC^498SQVLGLHC^506YK) (Homo sapiens, UniProt Q14258); assay: IA-DTB competitive chemoproteomics in live THP-1 cells; assay type: cell-based, 9606; conditions: 4 h at 37 °C, compound tested at 50 μM and 10 μM, significant if FC ≤ 0.25, p-value ≤ 0.01
T2 construct: endogenous in cells; host or cells: THP-1
T2 sequence (Q14258 whole entry): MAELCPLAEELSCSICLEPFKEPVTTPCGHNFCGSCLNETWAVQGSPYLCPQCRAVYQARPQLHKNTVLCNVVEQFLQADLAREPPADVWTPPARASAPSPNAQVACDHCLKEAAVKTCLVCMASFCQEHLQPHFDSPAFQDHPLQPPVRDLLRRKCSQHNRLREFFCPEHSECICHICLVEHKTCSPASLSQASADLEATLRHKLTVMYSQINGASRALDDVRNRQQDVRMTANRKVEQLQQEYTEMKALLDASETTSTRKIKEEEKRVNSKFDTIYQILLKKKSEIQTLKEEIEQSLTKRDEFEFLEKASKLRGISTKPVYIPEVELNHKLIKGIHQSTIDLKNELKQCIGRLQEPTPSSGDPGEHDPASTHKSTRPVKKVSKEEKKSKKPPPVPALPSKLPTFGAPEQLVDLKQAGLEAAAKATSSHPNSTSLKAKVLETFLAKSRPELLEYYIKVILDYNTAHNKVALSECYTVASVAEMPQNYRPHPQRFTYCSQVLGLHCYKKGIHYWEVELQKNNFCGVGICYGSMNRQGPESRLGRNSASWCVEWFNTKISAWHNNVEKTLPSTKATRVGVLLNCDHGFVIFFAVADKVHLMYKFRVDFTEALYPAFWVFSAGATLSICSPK

live THP-1 cells = assay: IA-DTB competitive chemoproteomics in live THP-1 cells, proteome-wide off-targets; assay type: cell-based, 9606; conditions: compound 50 μM, 4 h at 37 °C

E1~Ub loading (E1 (His6-UBA1))	Structure (SMILES)	TRIM25 engagement in cells [1]	number of other protein targets competed (live THP-1 cells)
not inhibited	Cc1cc(C(=O)N2CCCN(C(=O)CCl)CC2)ccc1-c1ccccc1 [Compound 10]	engaged TRIM25 in cells at the PRYSPRY domain at 50 μM	50
not inhibited	CC1Cc2ccccc2N1C(=O)C1CCCN(C(=O)CCl)C1 (centres unmarked) [Compound 11]	not observed to engage TRIM25	–
